Measurements as given in ChEMBL document CHEMBL1201862, “PubChem BioAssay data set” (2004).
One block for each molecule: values may come before it. Calls of active or inactive are those of the source.

Experiments:
Mucolipin-3 = Mucolipin-3 (Homo sapiens, UniProt Q8TDD5); assay: Fluorescence counterscreen assay for […] agonists: dose response cell-based high-throughput screening assay to identify agonists of the transient receptor potential channel ML3 (TRPML3). [Related pubchem assays: 1424, 1448 ]; format: functional
Sequence of Mucolipin-3 (Q8TDD5 whole entry): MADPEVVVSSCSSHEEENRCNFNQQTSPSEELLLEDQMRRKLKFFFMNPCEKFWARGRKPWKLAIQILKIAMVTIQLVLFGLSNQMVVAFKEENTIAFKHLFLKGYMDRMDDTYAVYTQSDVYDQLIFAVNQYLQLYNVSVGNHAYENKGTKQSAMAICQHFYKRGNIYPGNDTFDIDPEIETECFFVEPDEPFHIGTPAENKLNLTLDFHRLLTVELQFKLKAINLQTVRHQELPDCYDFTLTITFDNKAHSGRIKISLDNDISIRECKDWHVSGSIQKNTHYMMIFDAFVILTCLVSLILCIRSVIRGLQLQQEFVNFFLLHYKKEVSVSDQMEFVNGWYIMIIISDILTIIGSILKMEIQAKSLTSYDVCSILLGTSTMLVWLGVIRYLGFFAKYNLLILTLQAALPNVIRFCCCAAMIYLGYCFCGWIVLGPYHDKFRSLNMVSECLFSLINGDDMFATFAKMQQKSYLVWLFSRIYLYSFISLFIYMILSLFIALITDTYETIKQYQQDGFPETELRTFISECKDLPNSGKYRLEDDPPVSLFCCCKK

[1] = molecular target: T1, Corticotropin-releasing factor receptor 2/Corticotropin-releasing factor-binding protein (Homo sapiens, UniProt P24387+Q13324); assay: activators of CRF receptor 2 with binding protein – uHTS hits, confirmation (AID 602473); format: functional; settings: read-out: EC50_Mean
T1 sequence (Q13324 whole entry): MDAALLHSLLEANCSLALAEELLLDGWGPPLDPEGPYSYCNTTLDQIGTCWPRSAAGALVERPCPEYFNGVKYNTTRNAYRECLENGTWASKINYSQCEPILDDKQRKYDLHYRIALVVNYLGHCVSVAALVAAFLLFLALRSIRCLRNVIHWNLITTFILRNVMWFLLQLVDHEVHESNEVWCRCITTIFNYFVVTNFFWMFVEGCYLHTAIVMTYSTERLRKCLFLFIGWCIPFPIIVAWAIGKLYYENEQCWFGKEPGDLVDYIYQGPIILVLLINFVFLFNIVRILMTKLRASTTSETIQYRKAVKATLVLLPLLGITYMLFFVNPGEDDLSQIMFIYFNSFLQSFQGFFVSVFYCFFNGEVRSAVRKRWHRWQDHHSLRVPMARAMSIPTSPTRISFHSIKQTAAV
T1 sequence (P24387 whole entry): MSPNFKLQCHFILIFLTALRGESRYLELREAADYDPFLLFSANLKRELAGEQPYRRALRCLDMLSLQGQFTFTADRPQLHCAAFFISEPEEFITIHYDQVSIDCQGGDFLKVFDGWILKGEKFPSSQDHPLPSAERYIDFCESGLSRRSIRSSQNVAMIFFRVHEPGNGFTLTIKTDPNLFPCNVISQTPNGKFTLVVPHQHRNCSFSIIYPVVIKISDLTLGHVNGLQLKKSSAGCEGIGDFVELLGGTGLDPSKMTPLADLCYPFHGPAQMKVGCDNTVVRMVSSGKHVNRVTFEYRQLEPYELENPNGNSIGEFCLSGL

Ion channel NompC = Ion channel NompC (Danio rerio, UniProt Q7T1G6); assay: Dose response cell-based high-throughput screening assay for agonists of the transient receptor potential channel N1 (TRPN1). [Related pubchem assays (depositor defined):AID1424, AID1448]; format: functional
[2] = molecular target: T2, Runt-related transcription factor 1/Core-binding factor subunit beta (Homo sapiens, UniProt Q01196+Q13951); assay: inhibitors of RUNX1 Runt–CBFb-SMMHC binding, primary screen, biochemical, FRET, Cerulean-Runt, Venus-CBFb-SMMHC, uHTS (AID 1434); format: protein assay;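 further: partner is the CBFb-SMMHC leukemia fusion protein rather than wild-type CBFb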
T2 sequence (Q01196 whole entry, the tested form may be a part): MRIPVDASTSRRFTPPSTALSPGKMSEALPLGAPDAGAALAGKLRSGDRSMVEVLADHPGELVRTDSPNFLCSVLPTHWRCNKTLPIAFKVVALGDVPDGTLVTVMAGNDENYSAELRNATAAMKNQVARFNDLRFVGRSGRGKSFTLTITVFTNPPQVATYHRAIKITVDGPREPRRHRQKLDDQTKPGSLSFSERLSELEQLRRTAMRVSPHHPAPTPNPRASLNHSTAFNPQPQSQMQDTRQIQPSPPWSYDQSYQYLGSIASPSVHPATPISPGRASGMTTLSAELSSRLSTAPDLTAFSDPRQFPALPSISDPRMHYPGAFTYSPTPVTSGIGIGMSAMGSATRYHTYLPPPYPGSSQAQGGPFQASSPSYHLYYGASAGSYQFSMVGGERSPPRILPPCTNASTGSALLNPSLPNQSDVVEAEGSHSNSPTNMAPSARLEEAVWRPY
T2 sequence (Q13951 whole entry, the tested form may be a part): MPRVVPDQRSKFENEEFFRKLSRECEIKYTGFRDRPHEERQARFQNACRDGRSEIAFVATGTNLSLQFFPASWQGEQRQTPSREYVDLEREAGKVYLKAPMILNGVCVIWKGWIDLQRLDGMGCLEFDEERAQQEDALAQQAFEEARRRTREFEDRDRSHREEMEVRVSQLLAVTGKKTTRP

[3] = molecular target: T2, Runt-related transcription factor 1/Core-binding factor subunit beta; assay: inhibitors of RUNX1 Runt–CBFb-SMMHC binding, biochemical, TR-FRET (AID 1438); format: protein assay
[4] = molecular target: T3, Kappa-type opioid receptor (Homo sapiens, UniProt P41145); assay: SAR analysis of small molecule antagonists of the kappa opioid receptor via a luminescent beta-arrestin assay - Set 5. [Related pubchem assays (depositor defined):AID1778, AID1785]; format: functional
T3 sequence (P41145 whole entry): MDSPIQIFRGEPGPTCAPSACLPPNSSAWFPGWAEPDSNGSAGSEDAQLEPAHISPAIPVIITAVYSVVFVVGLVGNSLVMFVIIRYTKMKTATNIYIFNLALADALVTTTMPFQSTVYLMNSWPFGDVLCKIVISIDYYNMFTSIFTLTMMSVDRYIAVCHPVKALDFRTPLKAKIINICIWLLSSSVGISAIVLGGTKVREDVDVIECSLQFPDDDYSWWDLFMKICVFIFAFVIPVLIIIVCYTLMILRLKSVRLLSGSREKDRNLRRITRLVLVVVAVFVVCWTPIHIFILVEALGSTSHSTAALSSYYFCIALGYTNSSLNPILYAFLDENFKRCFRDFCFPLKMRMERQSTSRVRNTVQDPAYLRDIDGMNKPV

[5] = molecular target: T3, Kappa-type opioid receptor; assay: SAR analysis of small molecule antagonists of the kappa opioid receptor via a luminescent beta-arrestin assay - Set 4. [Related pubchem assays (depositor defined):AID1777, AID1778, AID1785, AID1786, AID1966, AID2133, AID2136, AID2285]; format: functional
[6] = molecular target: Nucleotide-binding oligomerization domain-containing protein 1 (Homo sapiens, UniProt Q9Y239); assay: SAR analysis of compounds that inhibit NOD1 - Set 3. [Related pubchem assays (depositor defined):AID1566, AID1575, AID1578, AID1849, AID1852, AID2333, AID2335, AID2466]; format: functional
[7] = molecular target: Nucleotide-binding oligomerization domain-containing protein 2 (Homo sapiens, UniProt Q9HC29); assay: NOD2 signaling inhibitors, analog potency, SAR follow-up, cell-based, set 3 (AID 2799); format: functional
Sequence of Nucleotide-binding oligomerization domain-containing protein 2 (Q9HC29 whole entry, the tested form may be a part): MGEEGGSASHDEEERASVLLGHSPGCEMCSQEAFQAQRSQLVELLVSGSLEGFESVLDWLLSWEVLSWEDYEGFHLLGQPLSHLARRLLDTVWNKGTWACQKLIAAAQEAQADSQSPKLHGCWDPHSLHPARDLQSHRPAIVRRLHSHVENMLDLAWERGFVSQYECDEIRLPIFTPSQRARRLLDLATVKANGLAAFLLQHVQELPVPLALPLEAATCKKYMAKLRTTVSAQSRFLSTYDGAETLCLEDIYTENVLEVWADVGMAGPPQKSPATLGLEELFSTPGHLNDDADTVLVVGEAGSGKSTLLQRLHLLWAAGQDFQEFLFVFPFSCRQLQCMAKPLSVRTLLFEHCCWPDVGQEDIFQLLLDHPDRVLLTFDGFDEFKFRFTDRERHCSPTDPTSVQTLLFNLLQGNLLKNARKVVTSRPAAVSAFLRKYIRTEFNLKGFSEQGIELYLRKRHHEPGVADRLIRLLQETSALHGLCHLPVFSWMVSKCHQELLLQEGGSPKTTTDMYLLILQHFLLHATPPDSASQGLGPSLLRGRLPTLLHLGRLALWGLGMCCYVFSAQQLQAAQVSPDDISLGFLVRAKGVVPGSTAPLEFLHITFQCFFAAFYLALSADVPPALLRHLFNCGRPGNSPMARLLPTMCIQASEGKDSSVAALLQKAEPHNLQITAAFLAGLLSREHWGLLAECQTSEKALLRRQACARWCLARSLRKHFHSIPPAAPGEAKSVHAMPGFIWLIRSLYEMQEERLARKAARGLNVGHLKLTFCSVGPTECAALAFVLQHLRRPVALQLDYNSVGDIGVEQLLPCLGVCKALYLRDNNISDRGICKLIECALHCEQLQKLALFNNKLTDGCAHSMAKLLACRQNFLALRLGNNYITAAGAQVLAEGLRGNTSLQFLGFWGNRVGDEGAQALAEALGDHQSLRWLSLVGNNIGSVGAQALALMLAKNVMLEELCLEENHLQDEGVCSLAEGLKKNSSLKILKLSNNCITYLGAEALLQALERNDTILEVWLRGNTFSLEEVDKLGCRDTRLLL

Tumor necrosis factor = Tumor necrosis factor (Homo sapiens, UniProt P01375); assay: TNFa-triggered NF-kB activation inhibitors, SAR follow-up, cell-based, set 3 (AID 2801); format: functional
Sequence of Tumor necrosis factor (P01375 whole entry): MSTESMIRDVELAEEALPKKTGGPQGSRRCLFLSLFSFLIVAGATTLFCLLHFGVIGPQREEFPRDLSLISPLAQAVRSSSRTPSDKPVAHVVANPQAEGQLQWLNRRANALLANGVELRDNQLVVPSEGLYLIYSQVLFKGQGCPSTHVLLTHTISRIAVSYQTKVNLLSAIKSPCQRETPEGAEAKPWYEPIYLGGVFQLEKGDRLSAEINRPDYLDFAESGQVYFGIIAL

HEK293 = assay: SAR analysis of compounds that are cytotoxic to HEK293 - Set 3. [Related pubchem assays (depositor defined):AID1575, AID1578, AID1848, AID1849, AID2001, AID2333, AID2334, AID2335, AID2337, AID2469]; format: functional, cell-based; settings: Homo sapiens
[8] = molecular target: Signal transducer and activator of transcription 3 (Homo sapiens, UniProt P40763); assay: STAT3 inhibitors, late-stage profile, late-stage follow-up, cell-based, STAT1 panel, qPCR, cytotoxicity, panel member STAT3 Inhibition (AID 2078)
Sequence of Signal transducer and activator of transcription 3 (P40763 whole entry): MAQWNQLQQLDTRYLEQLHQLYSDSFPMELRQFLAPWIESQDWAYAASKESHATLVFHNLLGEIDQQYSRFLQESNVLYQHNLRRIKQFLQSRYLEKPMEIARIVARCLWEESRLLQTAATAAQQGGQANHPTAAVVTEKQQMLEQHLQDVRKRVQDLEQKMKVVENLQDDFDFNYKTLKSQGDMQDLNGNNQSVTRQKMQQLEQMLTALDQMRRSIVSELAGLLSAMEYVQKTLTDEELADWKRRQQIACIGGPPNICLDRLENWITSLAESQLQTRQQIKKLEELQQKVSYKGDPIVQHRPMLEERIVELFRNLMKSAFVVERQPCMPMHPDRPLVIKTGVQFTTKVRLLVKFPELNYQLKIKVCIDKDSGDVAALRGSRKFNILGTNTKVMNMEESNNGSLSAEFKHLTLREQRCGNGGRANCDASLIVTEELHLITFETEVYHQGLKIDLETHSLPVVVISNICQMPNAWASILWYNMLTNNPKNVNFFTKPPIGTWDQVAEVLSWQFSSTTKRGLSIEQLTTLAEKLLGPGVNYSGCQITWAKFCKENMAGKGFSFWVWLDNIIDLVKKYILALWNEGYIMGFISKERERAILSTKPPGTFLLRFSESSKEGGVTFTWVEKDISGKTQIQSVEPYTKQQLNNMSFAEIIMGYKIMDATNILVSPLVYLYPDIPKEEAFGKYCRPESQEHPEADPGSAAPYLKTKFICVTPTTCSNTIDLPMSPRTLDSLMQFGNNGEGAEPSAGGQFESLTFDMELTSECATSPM

[9] = molecular target: Signal transducer and activator of transcription 1-alpha/beta (Homo sapiens, UniProt P42224); assay: STAT3 inhibitors, late-stage profile, late-stage follow-up, cell-based, STAT1 panel, qPCR, cytotoxicity, panel member STAT1 Inhibition (AID 2078)
Sequence of Signal transducer and activator of transcription 1-alpha/beta (P42224 whole entry): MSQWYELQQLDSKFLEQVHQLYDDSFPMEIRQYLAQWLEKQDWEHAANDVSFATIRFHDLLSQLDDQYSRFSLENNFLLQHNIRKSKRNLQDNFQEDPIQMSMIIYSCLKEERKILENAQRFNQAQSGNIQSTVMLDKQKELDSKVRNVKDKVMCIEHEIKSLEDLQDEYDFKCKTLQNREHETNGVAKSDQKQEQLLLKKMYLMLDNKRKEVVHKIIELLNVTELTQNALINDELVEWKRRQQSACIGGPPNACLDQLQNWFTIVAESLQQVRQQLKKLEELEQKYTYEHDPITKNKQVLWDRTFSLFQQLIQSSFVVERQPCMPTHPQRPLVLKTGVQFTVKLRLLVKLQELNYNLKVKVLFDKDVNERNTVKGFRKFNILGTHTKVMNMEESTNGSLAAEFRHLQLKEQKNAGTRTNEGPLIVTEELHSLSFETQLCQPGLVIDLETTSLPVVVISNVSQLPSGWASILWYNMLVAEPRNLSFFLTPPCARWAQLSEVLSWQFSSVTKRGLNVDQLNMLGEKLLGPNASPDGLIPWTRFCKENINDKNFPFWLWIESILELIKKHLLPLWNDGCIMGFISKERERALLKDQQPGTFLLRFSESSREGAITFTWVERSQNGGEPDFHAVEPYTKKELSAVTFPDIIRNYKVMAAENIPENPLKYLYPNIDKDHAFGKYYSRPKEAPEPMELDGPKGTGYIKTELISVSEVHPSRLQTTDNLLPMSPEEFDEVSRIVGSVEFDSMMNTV

- EC50 (Mucolipin-3): 5.42 µM (active)
- EC50 [1]: 15.1 µM (active)
- EC50 (Ion channel NompC): 5.32 µM (active)
Compound: COc1cccc(CN2CCN(Cc3cc4ccccc4[nH]3)CC2CCO)c1 (stereo not drawn)

Compound: Cc1cc(O)ccc1Nc1nc2ccccc2nc1Nc1ccc(O)cc1C
- IC50 [2]: 9.73 µM (active)
- IC50 [3]: 7.08 µM (active)

- IC50 [4]: 1.36 µM (active)
- IC50 [5]: 3.54 µM (active)
Compound: CC(C)N(CCNC(=O)c1ccc(CNS(=O)(=O)c2ccc(C#N)cc2)cc1)Cc1ccccc1

Compound: CC(C)c1ccc(S(=O)(=O)n2c(N)nc3ccccc32)cc1
- IC50 [6]: 0.495 µM (active)
- IC50 [7]: > 20 µM (inactive)
- IC50 (Tumor necrosis factor): > 20 µM (inactive)
- IC50 (HEK293): > 20 µM (inactive)

Compound: c1ccc(CC2CCN(c3ncnc4sc(-c5ccccc5)cc34)CC2)cc1
- IC50 [8]: > 55.7 µM (inactive)
- IC50 [9]: > 55.7 µM (inactive)
